Test results taken from US10238632B2, “Sigma receptor-binding agent” (FUJIFILM Toyama Chemical Co., Ltd., priority 2015, dated 2019).

What was measured:
[1] = tested on: 5-HT (non-selective) receptor; test: Receptor binding assay, 5-HT (non-selective); details: rat cerebral cortex, compound A at 10 μM, [3H] serotonin (2 nM), 15 min./37° C.
Procedure: (§1) The compound A was tested for ability to bind to 21 types of receptors. […]
(§2) The inhibition rate of the compound A for each radioligand was calculated by the following equation. 100−([measured specific binding]/[control specific binding]×100) Equation: […]
(§3) In the equation, the measured specific binding indicates the amount of binding radioactivity of each radioligand under the presence of the compound A and the corresponding reference compound, and the control specific binding indicates the amount of binding radioactivity of each radioligand under the presence of the corresponding reference compound.

[2] = biological target: T1, AT1 (h) receptor (Homo sapiens, UniProt P30556); test: Receptor binding assay, AT1 (h); details: human recombinant (CHO cells), compound A at 10 μM, [125I] [Sar1, Ile5]-AT II (0.05 nM), 60 min./37° C., read-out: Inhibition rate of compound A for radioligand (%)
T1 construct: expressed in transfected cells; host or cells: CHO cells
T1 sequence (P30556 whole entry): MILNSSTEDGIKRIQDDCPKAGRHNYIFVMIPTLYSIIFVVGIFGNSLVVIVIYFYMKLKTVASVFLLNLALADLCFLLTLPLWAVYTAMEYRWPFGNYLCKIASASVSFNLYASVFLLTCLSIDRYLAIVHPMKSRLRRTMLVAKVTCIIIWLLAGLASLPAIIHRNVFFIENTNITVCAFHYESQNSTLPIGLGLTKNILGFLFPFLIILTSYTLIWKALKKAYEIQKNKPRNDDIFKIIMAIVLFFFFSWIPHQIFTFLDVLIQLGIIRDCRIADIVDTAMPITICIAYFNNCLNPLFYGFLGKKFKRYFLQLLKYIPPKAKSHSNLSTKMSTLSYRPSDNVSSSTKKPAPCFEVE
Procedure: as §1, §2, §3

[3] = biological target: T2, sigma-2 receptors expressed in Jurkat cells (Homo sapiens, UniProt Q5BJF2); test: Identification of sigma-2 receptor inhibition constant; type: binding; details: 25 nM [3H] DTG under the presence of 1 μM (+)-pentazocine, room temperature for 60 minutes, Cheng-Prusoff equation
T2 construct: In the sigma-2 receptors expressed in Jurkat cells; endogenous in cells; host or cells: Jurkat cells
T2 sequence (Q5BJF2 whole entry): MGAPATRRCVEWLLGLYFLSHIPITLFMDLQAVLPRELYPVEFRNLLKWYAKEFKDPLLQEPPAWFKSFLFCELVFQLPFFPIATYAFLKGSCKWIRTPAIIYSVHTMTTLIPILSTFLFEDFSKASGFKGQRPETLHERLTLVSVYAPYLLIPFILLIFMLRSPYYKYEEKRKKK
Procedure: The sigma-2 receptor inhibition constant of the compound A (Ki value) was identified. The test was conducted by a method described below in accordance with Ganapathy, M. E. (1999).
DTG under the presence of 1 μM (+)-pentazocine. The reaction was conducted at room temperature for 60 minutes. The inhibition rate was calculated in the same manner as described in Test Example 1. The Ki value was identified in accordance with the Cheng-Prusoff equation by calculating IC50 based on nonlinear regression analysis.

[4] = tested on: TRH receptor; test: Receptor binding assay, TRH; details: rat cerebral cortex, compound A at 10 μM, [3H] Me-TRH (2 nM), 6 h/4° C.
Procedure: as §1, §2, §3

[5] = tested on: TH receptor; test: Receptor binding assay, TH; details: rat liver, compound A at 10 μM, [125I] T3 (0.1 nM), 18 h/4° C.
Procedure: as §1, §2, §3

[6] = tested on: BZD (central) receptor; test: Receptor binding assay, BZD (central); details: rat cerebral cortex, compound A at 10 μM, [3H] flunitrazepam (0.4 nM), 60 min./4° C.
Procedure: as §1, §2, §3

[7] = biological target: T3, M2 (h) receptor (Homo sapiens, UniProt P08172); test: Receptor binding assay, M2 (h); details: human recombinant (CHO cells), compound A at 10 μM, [3H] AF-DX 384 (2 nM), 60 min./22° C.
T3 construct: expressed in transfected cells; host or cells: CHO cells
T3 sequence (P08172 whole entry): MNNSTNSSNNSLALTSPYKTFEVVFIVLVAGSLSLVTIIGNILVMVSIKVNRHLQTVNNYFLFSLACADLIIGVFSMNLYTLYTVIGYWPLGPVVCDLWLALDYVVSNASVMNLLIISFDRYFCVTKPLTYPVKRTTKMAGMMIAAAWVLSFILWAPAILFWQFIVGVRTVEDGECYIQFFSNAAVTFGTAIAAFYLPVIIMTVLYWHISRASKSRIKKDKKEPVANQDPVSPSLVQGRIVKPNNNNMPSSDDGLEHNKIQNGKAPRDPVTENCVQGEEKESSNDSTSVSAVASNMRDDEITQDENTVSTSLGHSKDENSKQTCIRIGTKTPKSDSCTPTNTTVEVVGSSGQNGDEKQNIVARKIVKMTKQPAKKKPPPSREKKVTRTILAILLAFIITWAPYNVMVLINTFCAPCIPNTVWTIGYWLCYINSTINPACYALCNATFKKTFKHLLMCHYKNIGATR
Procedure: as §1, §2, §3

[8] = tested on: σ (non-selective) receptor; test: Receptor binding assay, σ (non-selective); details: rat cerebral cortex, compound A at 10 μM, [3H] DTG (8 nM), 120 min./22° C.
Procedure: as §1, §2, §3

[9] = biological target: T4, H2 receptor (Cavia porcellus, UniProt P47747); test: Receptor binding assay, H2; details: guinea-pig striatum, compound A at 10 μM, [3H] APT (0.1 nM), 150 min/22° C., read-out: Inhibition rate of compound A for radioligand (%)
T4 construct: guinea-pig striatum; from tissue; host or cells: guinea-pig striatum
T4 sequence (P47747 whole entry): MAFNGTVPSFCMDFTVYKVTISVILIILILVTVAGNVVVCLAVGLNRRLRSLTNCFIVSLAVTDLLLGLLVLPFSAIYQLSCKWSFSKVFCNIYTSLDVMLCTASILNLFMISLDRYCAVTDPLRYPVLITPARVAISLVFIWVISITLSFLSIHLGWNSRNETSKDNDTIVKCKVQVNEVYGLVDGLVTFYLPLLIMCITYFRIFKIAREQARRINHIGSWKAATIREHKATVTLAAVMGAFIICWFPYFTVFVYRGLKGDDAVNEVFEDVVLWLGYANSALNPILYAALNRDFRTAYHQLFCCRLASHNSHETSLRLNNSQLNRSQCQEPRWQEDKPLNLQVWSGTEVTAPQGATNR
Procedure: as §1, §2, §3

[10] = tested on: N (neuronal) (α-BGTX-insensitive) receptor; test: Receptor binding assay, N (neuronal) (α-BGTX-insensitive); details: rat cerebral cortex, compound A at 10 μM, [3H] cytisine (1.5 nM), 75 min./4° C.
Procedure: as §1, §2, §3

[11] = biological target: T5, M1 receptor (Rattus norvegicus, UniProt P08482); test: Receptor binding assay, M1; details: rat cerebral cortex, compound A at 10 μM, [3H] pirenzepine (1 nM), 60 min./22° C., read-out: Inhibition rate of compound A for radioligand (%)
T5 construct: rat cerebral cortex; from tissue; host or cells: rat cerebral cortex
Procedure: as §1, §2, §3

[12] = biological target: T6, GABAB receptor (Rattus norvegicus, UniProt Q9Z0U4); test: Receptor binding assay, GABAB; details: rat cerebral cortex, compound A at 10 μM, [3H] GABA (+40 μM isoguvacine) (10 nM), 10 min./22° C., read-out: Inhibition rate of compound A for radioligand (%)
T6 construct: rat cerebral cortex; from tissue; host or cells: rat cerebral cortex
T6 sequence (Q9Z0U4 20-960): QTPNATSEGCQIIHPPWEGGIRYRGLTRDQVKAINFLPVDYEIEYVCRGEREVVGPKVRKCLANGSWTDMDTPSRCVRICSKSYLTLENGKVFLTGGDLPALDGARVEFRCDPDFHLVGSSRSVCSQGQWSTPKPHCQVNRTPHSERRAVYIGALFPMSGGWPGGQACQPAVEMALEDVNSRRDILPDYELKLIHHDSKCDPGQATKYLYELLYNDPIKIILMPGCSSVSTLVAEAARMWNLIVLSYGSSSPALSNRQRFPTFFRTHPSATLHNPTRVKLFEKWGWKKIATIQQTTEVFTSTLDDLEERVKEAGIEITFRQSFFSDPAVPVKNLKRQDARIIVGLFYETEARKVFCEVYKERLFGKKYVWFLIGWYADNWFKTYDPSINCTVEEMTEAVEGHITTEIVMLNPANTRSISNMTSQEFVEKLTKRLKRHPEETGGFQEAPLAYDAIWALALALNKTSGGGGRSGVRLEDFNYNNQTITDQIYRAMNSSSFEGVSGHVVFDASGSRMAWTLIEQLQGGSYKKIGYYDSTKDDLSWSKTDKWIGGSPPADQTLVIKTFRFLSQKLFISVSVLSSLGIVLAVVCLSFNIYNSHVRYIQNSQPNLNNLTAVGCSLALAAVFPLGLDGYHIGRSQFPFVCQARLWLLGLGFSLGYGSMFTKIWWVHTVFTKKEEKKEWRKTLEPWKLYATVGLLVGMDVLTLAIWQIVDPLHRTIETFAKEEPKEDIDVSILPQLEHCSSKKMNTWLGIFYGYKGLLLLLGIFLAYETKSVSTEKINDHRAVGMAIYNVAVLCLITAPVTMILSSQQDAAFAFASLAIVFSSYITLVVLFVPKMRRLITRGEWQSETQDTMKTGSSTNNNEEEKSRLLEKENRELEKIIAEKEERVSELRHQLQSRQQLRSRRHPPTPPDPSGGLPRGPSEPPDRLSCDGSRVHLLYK
T6 sequence (O88871 41-940 partner): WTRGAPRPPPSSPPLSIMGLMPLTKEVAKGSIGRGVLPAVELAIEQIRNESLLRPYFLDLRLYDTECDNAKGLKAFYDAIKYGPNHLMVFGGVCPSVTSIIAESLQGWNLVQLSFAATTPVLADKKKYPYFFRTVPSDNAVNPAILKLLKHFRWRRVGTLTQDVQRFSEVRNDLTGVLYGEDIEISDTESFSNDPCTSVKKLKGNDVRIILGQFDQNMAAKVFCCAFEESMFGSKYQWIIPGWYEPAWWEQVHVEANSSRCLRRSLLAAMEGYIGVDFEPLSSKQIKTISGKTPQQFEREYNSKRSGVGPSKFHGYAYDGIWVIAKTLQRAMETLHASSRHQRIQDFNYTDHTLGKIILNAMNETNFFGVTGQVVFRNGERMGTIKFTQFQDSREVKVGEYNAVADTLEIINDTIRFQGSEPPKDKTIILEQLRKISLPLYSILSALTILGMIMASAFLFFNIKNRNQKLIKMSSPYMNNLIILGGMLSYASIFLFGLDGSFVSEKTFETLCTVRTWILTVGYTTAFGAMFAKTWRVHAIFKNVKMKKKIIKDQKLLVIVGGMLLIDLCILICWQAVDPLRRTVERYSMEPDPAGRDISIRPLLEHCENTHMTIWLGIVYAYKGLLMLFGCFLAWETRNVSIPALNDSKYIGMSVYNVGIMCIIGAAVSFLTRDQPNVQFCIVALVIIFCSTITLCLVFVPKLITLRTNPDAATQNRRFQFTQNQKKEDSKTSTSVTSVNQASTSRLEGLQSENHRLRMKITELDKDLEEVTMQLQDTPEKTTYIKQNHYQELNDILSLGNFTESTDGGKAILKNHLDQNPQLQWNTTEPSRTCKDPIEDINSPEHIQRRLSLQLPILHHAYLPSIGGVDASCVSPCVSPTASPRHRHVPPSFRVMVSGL
Procedure: as §1, §2, §3

[13] = biological target: T7, D2 receptor (Rattus norvegicus, UniProt P61169); test: Receptor binding assay, D2; details: rat striatum, compound A at 10 μM, [3H] YM-09151-2 (0.1 nM), 60 min./22° C.
T7 construct: rat striatum; from tissue; host or cells: rat striatum
T7 sequence (P61169 whole entry): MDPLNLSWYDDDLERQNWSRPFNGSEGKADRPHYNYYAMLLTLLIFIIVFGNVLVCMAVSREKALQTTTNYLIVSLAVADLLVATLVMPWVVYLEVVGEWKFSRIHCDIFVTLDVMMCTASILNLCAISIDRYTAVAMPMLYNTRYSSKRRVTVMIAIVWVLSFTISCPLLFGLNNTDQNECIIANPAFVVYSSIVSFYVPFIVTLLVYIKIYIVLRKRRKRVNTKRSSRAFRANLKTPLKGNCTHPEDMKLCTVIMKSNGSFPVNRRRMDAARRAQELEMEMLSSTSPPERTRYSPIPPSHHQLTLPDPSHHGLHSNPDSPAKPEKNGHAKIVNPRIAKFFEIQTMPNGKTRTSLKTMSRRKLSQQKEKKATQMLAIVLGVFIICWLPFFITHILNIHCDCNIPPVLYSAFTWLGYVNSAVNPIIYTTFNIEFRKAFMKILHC
Procedure: as §1, §2, §3

[14] = biological target: T8, D1 receptor (Rattus norvegicus, UniProt P18901); test: Receptor binding assay, D1; details: rat striatum, compound A at 10 μM, [3H] SCH 23390 (0.3 nM), 45 min./22° C.
T8 construct: rat striatum; from tissue; host or cells: rat striatum
T8 sequence (P18901 whole entry): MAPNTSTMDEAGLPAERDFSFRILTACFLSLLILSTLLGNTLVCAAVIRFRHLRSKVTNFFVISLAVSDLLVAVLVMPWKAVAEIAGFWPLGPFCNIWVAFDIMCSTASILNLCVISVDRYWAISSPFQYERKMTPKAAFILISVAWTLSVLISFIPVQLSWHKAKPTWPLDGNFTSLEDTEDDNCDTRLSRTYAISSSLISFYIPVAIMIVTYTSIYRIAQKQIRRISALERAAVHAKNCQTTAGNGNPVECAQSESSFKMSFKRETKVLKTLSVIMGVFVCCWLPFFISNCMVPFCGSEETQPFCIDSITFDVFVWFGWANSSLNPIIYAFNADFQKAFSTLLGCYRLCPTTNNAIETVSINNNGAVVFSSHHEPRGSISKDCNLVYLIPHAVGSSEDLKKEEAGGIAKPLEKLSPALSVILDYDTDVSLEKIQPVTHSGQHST
Procedure: as §1, §2, §3

[15] = tested on: α2 (non-selective) receptor; test: Receptor binding assay, α2 (non-selective); details: rat cerebral cortex, compound A at 10 μM, [3H] RX 821002 (0.5 nM), 30 min./22° C.
Procedure: as §1, §2, §3

[16] = biological target: T9, H1 (h) receptor (Homo sapiens, UniProt P35367); test: Receptor binding assay, H1 (h); details: human recombinant (HEK-293 cells), compound A at 10 μM, [3H] pyrilamine (3 nM), 60 min./22° C., read-out: Inhibition rate of compound A for radioligand (%)
T9 construct: expressed in transfected cells; host or cells: HEK-293 cells
Procedure: as §1, §2, §3

[17] = biological target: T10, β2 receptor (Cavia porcellus, UniProt Q8K4Z4); test: Receptor binding assay, β2; details: guinea-pig lung, compound A at 10 μM, [3H] (−)CGP 12177 (+10 nM CGP 20712A) (0.4 nM), 40 min./22° C., read-out: Inhibition rate of compound A for radioligand (%)
T10 construct: guinea-pig lung; from tissue; host or cells: guinea-pig lung
T10 sequence (Q8K4Z4 whole entry): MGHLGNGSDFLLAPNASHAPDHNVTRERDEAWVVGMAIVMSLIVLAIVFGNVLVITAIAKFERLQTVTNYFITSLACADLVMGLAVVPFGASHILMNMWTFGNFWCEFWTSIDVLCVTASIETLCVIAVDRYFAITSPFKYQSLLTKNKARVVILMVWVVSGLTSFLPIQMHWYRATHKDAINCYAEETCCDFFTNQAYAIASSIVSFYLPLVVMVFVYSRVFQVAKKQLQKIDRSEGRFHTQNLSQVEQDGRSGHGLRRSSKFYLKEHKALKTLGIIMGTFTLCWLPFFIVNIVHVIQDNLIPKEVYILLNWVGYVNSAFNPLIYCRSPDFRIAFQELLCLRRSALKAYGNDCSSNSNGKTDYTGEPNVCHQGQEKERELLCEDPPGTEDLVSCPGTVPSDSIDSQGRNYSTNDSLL
Procedure: as §1, §2, §3

[18] = tested on: α1 (non-selective) receptor; test: Receptor binding assay, α1 (non-selective); details: rat cerebral cortex, compound A at 10 μM, [3H] prazosin (0.25 nM), 60 min./22° C
Procedure: as §1, §2, §3

[19] = tested on: NMDA receptor; test: Receptor binding assay, NMDA; details: rat cerebral cortex, compound A at 10 μM, [3H] CGP 39653 (5 nM), 60 min./4° C.
Procedure: as §1, §2, §3

[20] = tested on: GABAA receptor; test: Receptor binding assay, GABAA; details: rat cerebral cortex, compound A at 10 μM, [3H] muscimol (5 nM), 10 min./4° C.
Procedure: as §1, §2, §3

[21] = biological target: T11, AT2 (h) receptor (Homo sapiens, UniProt P50052); test: Receptor binding assay, AT2 (h); details: human recombinant (Hela cells), compound A at 10 μM, [3H] GCP 42112A (0.05 nM), 180 min./37° C., read-out: Inhibition rate of compound A for radioligand (%)
T11 construct: expressed in transfected cells; host or cells: Hela cells
Procedure: as §1, §2, §3

[22] = biological target: T12, sigma-1 receptors expressed in Jurkat cells (Homo sapiens, UniProt Q99720); test: Identification of sigma-1 receptor inhibition constant; type: binding; details: 15 nM [3H] (+)-pentazocine, 37° C. for 120 minutes, Cheng-Prusoff equation
T12 construct: In the sigma-1 receptors expressed in Jurkat cells; endogenous in cells; host or cells: Jurkat cells
T12 sequence (Q99720 whole entry): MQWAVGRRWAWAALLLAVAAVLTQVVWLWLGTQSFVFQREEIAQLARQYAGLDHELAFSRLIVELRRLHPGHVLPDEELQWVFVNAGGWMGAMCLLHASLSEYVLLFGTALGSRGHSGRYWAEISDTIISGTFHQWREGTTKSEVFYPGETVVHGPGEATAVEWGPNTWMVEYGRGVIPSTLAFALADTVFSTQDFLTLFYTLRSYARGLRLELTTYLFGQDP
Procedure: The sigma-1 receptor inhibition constant of the compound A (Ki value) was identified. The test was conducted by a method described below in accordance with Ganapathy, M. E. (1999).
(+)-pentazocine. The reaction was conducted at 37° C. for 120 minutes. The inhibition rate was calculated in the same manner as described in Test Example 1. The Ki value was identified in accordance with the Cheng-Prusoff equation by calculating IC50 based on nonlinear regression analysis.

SMILES: O=C(O)/C=C\C(=O)O.OC1CN(CCCOCCc2ccc3sccc3c2)C1 [compound A, 1-(3-(2-(1-benzothiophene-5-yl)ethoxy)propyl)azetidine-3-ol maleate]
- Inhibition rate of compound A for radioligand (%) [1]: 2%
- inhibition at 10 µM [2]: -2%
- Ki [3]: 160 nM
- Inhibition rate of compound A for radioligand (%) [4]: 1%
- Inhibition rate of compound A for radioligand (%) [5]: −5%
- Inhibition rate of compound A for radioligand (%) [6]: 25%
- Inhibition rate of compound A for radioligand (%) [7]: 19%
- Inhibition rate of compound A for radioligand (%) [8]: 99%
- inhibition at 10 µM [9]: 72%
- Inhibition rate of compound A for radioligand (%) [10]: 12%
- inhibition at 10 µM [11]: 43%
- inhibition at 10 µM [12]: 4%
- Inhibition rate of compound A for radioligand (%) [13]: 21%
- Inhibition rate of compound A for radioligand (%) [14]: 1%
- Inhibition rate of compound A for radioligand (%) [15]: 40%
- inhibition at 10 µM [16]: -15%
- inhibition at 10 µM [17]: 5%
- Inhibition rate of compound A for radioligand (%) [18]: 36%
- Inhibition rate of compound A for radioligand (%) [19]: 16%
- Inhibition rate of compound A for radioligand (%) [20]: −8%
- inhibition at 10 µM [21]: -13%
- Ki [22]: 16 nM
